Reference: ChEMBL document CHEMBL1201862, “PubChem BioAssay data set” (2004)
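Step 1: Grow cells in 96-well plates. Step 2: Expose to compound for 48 hours at 5 concentrations. Step 3: Interpolate endpoints linearly; if unreached, use highest concentration. GI50 marks 50% less growth.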 Active and inactive are the calls of the source. No stated cut-off is given here; in the data, active = GI50 up to about 1.1 µM and inactive = higher.

Assays:
Experiment in all cases: NCI tumour cell line growth inhibition, 48 h
DMS-114 = system: DMS-114
XF498 = system: XF498
SNB-75 = system: SNB-75
NCI-H23 = system: NCI-H23
OVCAR-3 = system: OVCAR-3
CAKI-1 = system: CAKI-1
SF-295 = system: SF-295
MOLT-4 = system: MOLT-4
HT-29 = system: HT-29
SW-620 = system: SW-620
RPMI-8226 = system: RPMI-8226
786-0 = system: 786-0
OVCAR-5 = system: OVCAR-5
NCI-H226 = system: NCI-H226
SK-MEL-5 = system: SK-MEL-5
LXFL 529 = system: LXFL 529
KM12 = system: KM12
SK-MEL-28 = system: SK-MEL-28
SR = system: SR
HOP-62 = system: HOP-62
UACC-62 = system: UACC-62
NCI-H460 = system: NCI-H460
KM-20L2 = system: KM-20L2
DLD-1 = system: DLD-1
SNB-19 = system: SNB-19
OVCAR-8 = system: OVCAR-8
OVCAR-4 = system: OVCAR-4
IGROV-1 = system: IGROV-1
M19-MEL = system: M19-MEL
HCT-15 = system: HCT-15
DMS-273 = system: DMS-273
SF-268 = system: SF-268
HOP-18 = system: HOP-18
UACC-257 = system: UACC-257
LOX IMVI = system: LOX IMVI
SNB-78 = system: SNB-78
SK-MEL-2 = system: SK-MEL-2
UO-31 = system: UO-31
SN12C = system: SN12C
K562 = system: K562
SF-539 = system: SF-539
EKVX = system: EKVX
HCT-116 = system: HCT-116
NCI-H522 = system: NCI-H522
RXF 393 = system: RXF 393
HCC 2998 = system: HCC 2998
A549 = system: A549
ACHN = system: ACHN
RXF 631 = system: RXF 631
COLO 205 = system: COLO 205
M14 = system: M14
U-251 = system: U-251
TK-10 = system: TK-10
SK-OV-3 = system: SK-OV-3
HOP-92 = system: HOP-92
CCRF-CEM = system: CCRF-CEM
HL-60 = system: HL-60
A498 = system: A498
Malme-3M = system: Malme-3M

## CCOC(=O)[C@H]1Nc2ccc(Cl)cc2[C@H]2c3ccccc3O[C@H]21
DMS-114
  GI50: > 100 µM (inactive)
XF498
  GI50: > 100 µM (inactive)
SNB-75
  GI50: 47.4 µM (inactive)
NCI-H23
  GI50: > 10 µM (inactive)
OVCAR-3
  GI50: 80.4 µM (inactive)
CAKI-1
  GI50: > 100 µM (inactive)
SF-295
  GI50: 72.1 µM (inactive)
MOLT-4
  GI50: > 100 µM (inactive)
HT-29
  GI50: 99.3 µM (inactive)
SW-620
  GI50: > 100 µM (inactive)
RPMI-8226
  GI50: 45.5 µM (inactive)
786-0
  GI50: > 100 µM (inactive)
OVCAR-5
  GI50: > 100 µM (inactive)
NCI-H226
  GI50: > 100 µM (inactive)
SK-MEL-5
  GI50: 64.7 µM (inactive)
LXFL 529
  GI50: 32.1 µM (inactive)
KM12
  GI50: 93.5 µM (inactive)
SK-MEL-28
  GI50: 35.2 µM (inactive)
SR
  GI50: 94.8 µM (inactive)
HOP-62
  GI50: > 100 µM (inactive)
UACC-62
  GI50: 41.8 µM (inactive)
NCI-H460
  GI50: > 100 µM (inactive)
KM-20L2
  GI50: > 100 µM (inactive)
DLD-1
  GI50: 63 µM (inactive)
SNB-19
  GI50: > 100 µM (inactive)
OVCAR-8
  GI50: > 100 µM (inactive)
OVCAR-4
  GI50: 54.1 µM (inactive)
IGROV-1
  GI50: > 100 µM (inactive)
M19-MEL
  GI50: > 100 µM (inactive)
HCT-15
  GI50: 16.4 µM
DMS-273
  GI50: 30.1 µM (inactive)
SF-268
  GI50: > 100 µM (inactive)
HOP-18
  GI50: > 100 µM (inactive)
UACC-257
  GI50: 36.1 µM (inactive)
LOX IMVI
  GI50: > 100 µM (inactive)
SNB-78
  GI50: > 100 µM (inactive)
SK-MEL-2
  GI50: > 100 µM (inactive)
UO-31
  GI50: > 100 µM (inactive)
SN12C
  GI50: > 100 µM (inactive)
K562
  GI50: 56.5 µM (inactive)
SF-539
  GI50: > 100 µM (inactive)
EKVX
  GI50: > 100 µM (inactive)
HCT-116
  GI50: > 100 µM (inactive)
NCI-H522
  GI50: > 100 µM (inactive)
RXF 393
  GI50: > 100 µM (inactive)
HCC 2998
  GI50: > 100 µM (inactive)
A549
  GI50: 79.4 µM (inactive)
ACHN
  GI50: > 100 µM (inactive)
RXF 631
  GI50: > 100 µM (inactive)
COLO 205
  GI50: > 100 µM (inactive)
M14
  GI50: 41.2 µM (inactive)
U-251
  GI50: > 100 µM (inactive)
TK-10
  GI50: 39.8 µM (inactive)

## Cn1c(=O)c(/N=N/c2c(=O)n(C)c(=O)n3c2[nH]c2ccccc23)c2[nH]c3ccccc3n2c1=O
DMS-114
  GI50: 63 µM (inactive)
XF498
  GI50: > 100 µM (inactive)
SNB-75
  GI50: 29.1 µM (inactive)
NCI-H23
  GI50: 71.1 µM (inactive)
OVCAR-3
  GI50: > 100 µM (inactive)
CAKI-1
  GI50: > 100 µM (inactive)
SF-295
  GI50: 12.4 µM (inactive)
HT-29
  GI50: > 100 µM (inactive)
SW-620
  GI50: > 100 µM (inactive)
SK-OV-3
  GI50: > 100 µM (inactive)
RPMI-8226
  GI50: > 100 µM (inactive)
786-0
  GI50: 41.9 µM (inactive)
HOP-92
  GI50: 94.2 µM (inactive)
CCRF-CEM
  GI50: 8.63 µM (inactive)
OVCAR-5
  GI50: > 100 µM (inactive)
NCI-H226
  GI50: 36.3 µM (inactive)
SK-MEL-5
  GI50: > 100 µM (inactive)
LXFL 529
  GI50: 20 µM (inactive)
KM12
  GI50: > 100 µM (inactive)
SK-MEL-28
  GI50: > 100 µM (inactive)
HL-60
  GI50: > 100 µM (inactive)
HOP-62
  GI50: 57.1 µM (inactive)
UACC-62
  GI50: > 100 µM (inactive)
NCI-H460
  GI50: 9.89 µM (inactive)
KM-20L2
  GI50: > 100 µM (inactive)
DLD-1
  GI50: > 100 µM (inactive)
SNB-19
  GI50: 13.2 µM (inactive)
OVCAR-8
  GI50: 57.9 µM (inactive)
OVCAR-4
  GI50: > 100 µM (inactive)
IGROV-1
  GI50: 86.7 µM (inactive)
M19-MEL
  GI50: > 100 µM (inactive)
HCT-15
  GI50: 48.5 µM
DMS-273
  GI50: > 100 µM (inactive)
SF-268
  GI50: 46.2 µM (inactive)
HOP-18
  GI50: 24 µM (inactive)
UACC-257
  GI50: 54.2 µM (inactive)
LOX IMVI
  GI50: 6.24 µM (inactive)
SNB-78
  GI50: > 100 µM (inactive)
SK-MEL-2
  GI50: > 100 µM (inactive)
UO-31
  GI50: 87.3 µM (inactive)
A498
  GI50: 90.4 µM (inactive)
K562
  GI50: > 100 µM (inactive)
SF-539
  GI50: 57.4 µM (inactive)
EKVX
  GI50: > 100 µM (inactive)
HCT-116
  GI50: 6.95 µM (inactive)
NCI-H522
  GI50: 66.5 µM (inactive)
RXF 393
  GI50: > 100 µM (inactive)
HCC 2998
  GI50: > 100 µM (inactive)
A549
  GI50: 92.7 µM (inactive)
ACHN
  GI50: 80.9 µM (inactive)
RXF 631
  GI50: 85.7 µM (inactive)
COLO 205
  GI50: > 100 µM (inactive)
M14
  GI50: > 100 µM (inactive)
U-251
  GI50: 22.4 µM (inactive)
TK-10
  GI50: 50.8 µM (inactive)
Malme-3M
  GI50: > 100 µM (inactive)

## CN(C)c1nnnn1-c1c(N)n(C)c(=O)n(C)c1=O
DMS-114
  GI50: > 100 µM (inactive)
XF498
  GI50: > 100 µM (inactive)
SNB-75
  GI50: > 100 µM (inactive)
NCI-H23
  GI50: > 100 µM (inactive)
OVCAR-3
  GI50: > 100 µM (inactive)
CAKI-1
  GI50: > 100 µM (inactive)
SF-295
  GI50: > 100 µM (inactive)
MOLT-4
  GI50: > 100 µM (inactive)
HT-29
  GI50: > 100 µM (inactive)
SW-620
  GI50: > 100 µM (inactive)
SK-OV-3
  GI50: > 100 µM (inactive)
RPMI-8226
  GI50: > 100 µM (inactive)
786-0
  GI50: > 100 µM (inactive)
HOP-92
  GI50: > 100 µM (inactive)
CCRF-CEM
  GI50: > 100 µM (inactive)
OVCAR-5
  GI50: > 100 µM (inactive)
NCI-H226
  GI50: > 100 µM (inactive)
SK-MEL-5
  GI50: > 100 µM (inactive)
LXFL 529
  GI50: > 100 µM (inactive)
KM12
  GI50: > 100 µM (inactive)
SK-MEL-28
  GI50: > 100 µM (inactive)
HL-60
  GI50: > 100 µM (inactive)
HOP-62
  GI50: > 100 µM (inactive)
UACC-62
  GI50: > 100 µM (inactive)
NCI-H460
  GI50: > 100 µM (inactive)
KM-20L2
  GI50: > 100 µM (inactive)
DLD-1
  GI50: > 100 µM (inactive)
SNB-19
  GI50: > 100 µM (inactive)
OVCAR-8
  GI50: > 100 µM (inactive)
OVCAR-4
  GI50: > 100 µM (inactive)
IGROV-1
  GI50: > 100 µM (inactive)
M19-MEL
  GI50: > 100 µM (inactive)
HCT-15
  GI50: > 100 µM
DMS-273
  GI50: > 100 µM (inactive)
SF-268
  GI50: > 100 µM (inactive)
HOP-18
  GI50: > 100 µM (inactive)
UACC-257
  GI50: > 100 µM (inactive)
LOX IMVI
  GI50: > 100 µM (inactive)
SNB-78
  GI50: > 100 µM (inactive)
SK-MEL-2
  GI50: > 100 µM (inactive)
UO-31
  GI50: > 100 µM (inactive)
A498
  GI50: > 100 µM (inactive)
SN12C
  GI50: > 100 µM (inactive)
K562
  GI50: > 100 µM (inactive)
SF-539
  GI50: > 100 µM (inactive)
EKVX
  GI50: > 100 µM (inactive)
HCT-116
  GI50: > 100 µM (inactive)
NCI-H522
  GI50: > 100 µM (inactive)
HCC 2998
  GI50: > 100 µM (inactive)
A549
  GI50: > 100 µM (inactive)
ACHN
  GI50: > 100 µM (inactive)
RXF 631
  GI50: > 100 µM (inactive)
COLO 205
  GI50: > 100 µM (inactive)
U-251
  GI50: > 100 µM (inactive)
TK-10
  GI50: > 100 µM (inactive)
Malme-3M
  GI50: > 100 µM (inactive)
